Legend:
[1] = molecular target: T1, Human Mineralocorticoid Receptor (hMR) (Homo sapiens, UniProt P08235); assay: Inhibition of binding of [3H]-aldosterone to hMR (lysate of FreeStyle 293 cells expressing hMR); details: compound at 10^−5 M; 10 nM [3H]-aldosterone; hMR lysate 1.0 mg/ml; 16 hr at 4° C.; read-out: Inhibition rate (at 10^−5 M)
T1 construct: Full-length cDNA was constructed from two fragments of hMR cDNA amplified separately; expressed in transfected cells; host or cells: FreeStyle 293 cells transiently transfected with pMCMVneo-hMR; supernatant of the freeze-thaw lysate after ultracentrifugation
T1 sequence (P08235 1-984): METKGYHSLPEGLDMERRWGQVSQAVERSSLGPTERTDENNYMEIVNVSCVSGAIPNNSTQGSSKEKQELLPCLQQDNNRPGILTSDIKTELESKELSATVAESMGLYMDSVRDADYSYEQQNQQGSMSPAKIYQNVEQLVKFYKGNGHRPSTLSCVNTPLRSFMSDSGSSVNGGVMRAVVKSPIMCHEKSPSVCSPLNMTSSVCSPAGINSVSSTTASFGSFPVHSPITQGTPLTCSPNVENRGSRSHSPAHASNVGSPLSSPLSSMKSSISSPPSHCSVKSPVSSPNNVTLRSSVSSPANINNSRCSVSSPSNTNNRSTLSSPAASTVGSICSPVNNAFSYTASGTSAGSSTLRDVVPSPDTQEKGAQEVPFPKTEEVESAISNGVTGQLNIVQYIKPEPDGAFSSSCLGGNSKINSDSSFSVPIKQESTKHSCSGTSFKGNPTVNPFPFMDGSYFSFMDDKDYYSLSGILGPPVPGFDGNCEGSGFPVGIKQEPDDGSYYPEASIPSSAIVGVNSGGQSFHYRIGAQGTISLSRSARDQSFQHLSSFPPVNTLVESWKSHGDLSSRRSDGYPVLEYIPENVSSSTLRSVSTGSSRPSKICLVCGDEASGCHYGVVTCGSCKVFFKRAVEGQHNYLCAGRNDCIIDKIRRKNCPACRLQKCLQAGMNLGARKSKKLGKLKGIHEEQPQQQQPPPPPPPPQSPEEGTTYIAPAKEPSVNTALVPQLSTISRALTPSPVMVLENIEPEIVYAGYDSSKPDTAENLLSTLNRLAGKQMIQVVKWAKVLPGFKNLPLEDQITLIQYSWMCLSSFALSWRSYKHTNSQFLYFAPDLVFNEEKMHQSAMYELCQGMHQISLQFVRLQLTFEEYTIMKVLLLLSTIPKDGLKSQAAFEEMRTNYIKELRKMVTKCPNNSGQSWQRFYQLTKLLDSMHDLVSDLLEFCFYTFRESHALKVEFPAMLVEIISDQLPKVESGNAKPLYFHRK
Description: The following procedures described in this Example were carried out according to the methods described in Molecular Cloning—Cold Spring Harbor Laboratory (1989) or protocols specified by manufacturers. (1) Cloning of Human Mineralocorticoid Receptor (hMR) cDNA hMR cDNA was amplified by polymerase chain reaction (PCR) from human kidney cDNA library. Full-length cDNA was constructed from two fragments of hMR cDNA amplified separately. The primers were designed referring to the nucleotide sequence of hMR cDNA reported by Arriza et. al (Science 1987; 237: 268-275). The PCR reactions were carried out using Pyrobest® DNA polymerase (Takara). The PCR products were electrophoresed in agarose gel, and 1.7 kb (region (i)) and 1.5 kb (region (ii)) DNA fragments were recovered. Each DNA fragment was inserted into pCR®4Blunt-TOPO® vector (Invitrogen). The resulting plasmids thus obtained were designated as pB-hMR (i) and pB-hMR (ii). To obtain the full-length hMR cDNA, pB-hMR (i) was digested with XhoI and PvuI, and pB-hMR (ii) was digested with PvuI and KpnI, respectively, and the two cDNA fragments were ligated into pBlueScript®IISK+ vector (Stratagene). The resulting plasmid thus obtained was designated as pB-hMR. (2) Construction of hMR Expression Plasmid pMCMVneo (described in WO03/099793) was digested with XhoI and KpnI, and 5.6 kb fragment was ligated with 2.9 kb hMR cDNA fragment obtained by digestion of pB-hMR (described in above (1)) with XhoI and KpnI. The plasmid thus obtained was designated as pMCMVneo-hMR. (3) Expression of hMR in FreeStyle 293 Cells and Preparation of Cell Lysate FreeStyle 293 cells were inoculated at 1×10^8 cells in 93 ml FreeStyle™ 293 Expression Medium (Invitrogen) in a 500 ml Erlenmeyer flask and cultured at 37° C. under 8% CO2 for 1 hr. The cells were treated with 6.7 ml of the transfection mixture containing 100 μg of pMCMVneo-hMR obtained in above (2) and 133 μl of FreeStyle™ 293 Transfection Reagent (Invitrogen). The transfected cells were cultivated for 48 hr at 37° C. in 8% CO2 atmosphere. The cultivated cells were centrifuged and washed with TEG buffer (10 mM Tris-HCl (pH 7.2), 50 mM EDTA, 10% glycerol), and resuspended in 10 ml TEGM buffer (10 mM Tris-HCl (pH 7.2), 1 mM EDTA, 10% glycerol, 1 mM β-mercaptoethanol, 10 mM sodium molybdate, 1 mM dithiothreitol, 2 tablets/100 ml of protease inhibitor cocktail tablets (Roche)). The cell suspension was frozen with liquid nitrogen and thawed on ice, and ultra-centrifuged at 225,000×g for 20 min at 4° C. The supernatant fraction including hMR (hMR lysate) was collected and stored at −80° C. (4) Measurement of Inhibition Activity Against Binding of hMR and Aldosterone [^3H]-Aldosterone (Amersham Biosciences) as ligand was added at 10 nM to the reaction mixture including test compound at various concentration and hMR lysate (1.0 mg/ml) obtained in above (3) and mixture was filled up to 50.5 μl with TEGM buffer. The reaction mixture was incubated for 16 hr at 4° C. and 35 μl of dextran/gelatin coated charcoal suspension (5% charcoal, 0.5% dextran T-70 (Amersham Biosciences), 0.1% gelatin (SIGMA), 10 mM Tris HCl (pH 7.2), 1 mM EDTA) was added thereto to separate bound and free radioactive aldosterone. The mixture containing charcoal was incubated for 10 min at 4° C. and centrifuged at 910×g for 10 min at 4° C. Radioactivity in 30 μl of the supernatant was measured by TopCount™ (Packard). For the determination of nonspecific binding, cold Aldosterone instead of drug was added to reaction mixture at 100 μM. Specific binding was determined by subtracting nonspecific binding from total binding.

Row | Compound | melting point | inhibition at 10 µM [1]
1 | O=C1COc2ccc(C3=Cc4ccccc4[S+]([O-])C3c3ccccc3)cc2N1 (centres unmarked) [Example 22, 6-(1-oxido-2-phenyl-2H-thiochromen-3-yl)-2H-1,4-benzoxazin-3(4H)-one] | 228 °C | 
2 | O=C1COc2ccc(C3=NN(C(=O)C(F)(F)F)CC3c3ccccc3)cc2N1 (centres unmarked) [Example 57, 6-(4-Phenyl-1-(2,2,2-trifluoroacetyl)-4,5-dihydro-1H-pyrazol-3-yl)-2H-benzo[b][1,4]oxazin-3(4H)-one] |  | ≥ 70%
3 | Cc1cc(F)ccc1-n1nc(C(F)(F)F)cc1-c1ccc2c(c1)NC(=O)CO2 [Example 107, 6-(1-(4-fluoro-2-methylphenyl)-3-(trifluoromethyl)-1H-pyrazol-5-yl)-2H-benzo[b][1,4]oxazin-3(4H)-one] |  | ≥ 70%
4 | O=C1COc2ccc(C3=Nc4ccccc4SC3c3ccccc3)cc2N1 (centres unmarked) [Example 14, 6-(2-Phenyl-2H-1,4-benzothiazin-3-yl)-2H-1,4-benzoxazin-3(4H)-one] |  | ≥ 70%
5 | O=C1COc2ccc(C3=NN(CC(F)(F)F)CC3c3ccccc3)cc2N1 (centres unmarked) [Example 53, 6-(4-Phenyl-1-(2,2,2-trifluoroethyl)-4,5-dihydro-1H-pyrazol-3-yl)-2H-benzo[b][1,4]oxazin-3(4H)-one] |  | ≥ 70%
6 | O=C1COc2ccc(C3=NN(c4ccc(F)cc4)CC3c3ccccc3)cc2N1 (centres unmarked) [Example 49, 6-(1-(4-Fluorophenyl)-4-phenyl-4,5-dihydro-1H-pyrazol-3-yl)-2H-benzo[b][1,4]oxazin-3(4H)-one] |  | ≥ 70%
7 | O=C1COc2ccc(-c3cc(C(F)(F)F)nn3-c3ccc(Cl)cc3)cc2N1 [Example 74, 6-(1-(4-Chlorophenyl)-3-(trifluoromethyl)-1H-pyrazol-5-yl)-2H-benzo[b][1,4]oxazin-3(4H)-one] |  | ≥ 70%
8 | O=C1COc2ccc(C3=Nn4cnnc4SC3c3ccc(F)cc3)cc2N1 (centres unmarked) [Example 35, 6-[7-(4-Fluorophenyl)-7H-[1,2,4]triazolo[3,4-b][1,3,4]thiadiazin-6-yl]-2H-1,4-benzoxazin-3(4H)-one] |  | ≥ 70%
9 | O=C1COc2ccc(C3=Nn4ccnc4SC3c3ccccc3)cc2N1 (centres unmarked) [Example 5, 6-(2-Phenyl-2H-imidazo[2,1-b][1,3,4]thiadiazin-3-yl)-2H-1,4-benzoxazin-3(4H)-one] |  | ≥ 70%
10 | O=C1COc2c(F)cc(C3=Nn4cnnc4SC3c3ccc(F)cc3)cc2N1 (centres unmarked) [Example 195, 8-fluoro-6-[7-(4-fluorophenyl)-7H-[1,2,4]triazolo[3,4-b][1,3,4]thiadiazin-6-yl]-2H-1,4-benzoxazin-3(4H)-one] |  | ≥ 70%
11 | Cc1cc(C2=Nn3cnnc3SC2c2ccc(F)cc2)cc2c1OCC(=O)N2 (centres unmarked) [Example 185, 6-[7-(4-fluorophenyl)-7H-[1,2,4]triazolo[3,4-b][1,3,4]thiadiazin-6-yl]-8-methyl-2H-1,4-benzoxazin-3(4H)-one] |  | ≥ 70%
12 | N#Cc1ccc2c(c1)SC(c1ccccc1)C(c1ccc3c(c1)NC(=O)CO3)=C2 (centres unmarked) [Example 130, 3-(3-oxo-3,4-dihydro-2H-1,4-benzoxazin-6-yl)-2-phenyl-2H-thiochromene-7-carbonitrile] |  | ≥ 70%
13 | O=C1COc2ccc(C3=Cc4ccccc4OC3c3ccccc3)cc2N1 (centres unmarked) [Example 19, 6-(2-Phenyl-2H-chromen-3-yl)-2H-1,4-benzoxazin-3(4H)-one] |  | ≥ 70%
14 | O=C1COc2ccc(C3=Nc4ccccc4SC3c3ccccn3)cc2N1 (centres unmarked) [Example 43, 6-(2-Pyridin-2-yl-2H-1,4-benzothiazin-3-yl)-2H-1,4-benzoxazin-3(4H)-one] |  | ≥ 70%
15 | O=C1COc2c(Cl)cc(C3=Cn4ccnc4SC3c3ccc(F)cc3)cc2N1 (centres unmarked) [Example 118, 8-chloro-6-[7-(4-fluorophenyl)-7H-imidazo[2,1-b][1,3]thiazin-6-yl]-2H-1,4-benzoxazin-3(4H)-one] |  | ≥ 70%
16 | O=C1COc2ccc(C3=Nn4cc(C(F)(F)F)nc4SC3c3ccccc3)cc2N1 (centres unmarked) [Example 7, 6-[2-Phenyl-7-(trifluoromethyl)-2H-imidazo[2,1-b][1,3,4]thiadiazin-3-yl]-2H-1,4-benzoxazin-3(4H)-one] |  | ≥ 70%
17 | Cc1ccccc1-n1nc(C(F)(F)F)cc1-c1ccc2c(c1)NC(=O)CO2 [Example 82, 6-(1-o-tolyl-3-(trifluoromethyl)-1H-pyrazol-5-yl)-2H-benzo[b][1,4]oxazin-3(4H)-one] |  | ≥ 70%

— patent publication US20090253687A1, “Fused Heterocyclic Compounds and Their Use as Mineralocorticoid Receptor Ligands” (priority 2005, published 2009)
